From patent US10925963B2, “Combination artemisinin and chemiluminescent photodynamic therapy and uses therefor” (Washington University, priority 2015, dated 2021)

How the values were obtained:
[1] = tested on: Plasmodium-infected erythrocytes; test: Fluorescence microscopy of PPIX accumulation in parasite-infected erythrocytes; format: cell-based, Plasmodium falciparum; conditions: parasites grown in 200 μM ALA; epifluorescence microscope
Method: (§1) Images of live or fixed parasites were acquired on an Axio Imager.M1 epifluorescence microscope (Carl Zeiss Microimaging, Inc.) equipped with a Hamamatsu ORCA-ER digital CCD camera and running Axiovision 4.8 software, as described previously (Sigala, P. A., et al., J. Biol. Chem. 287, 37793-37807, 2012). Live parasite nuclei were stained with 5 μM Hoechst 33342 added immediately prior to image acquisition. For photodynamic imaging studies, parasites were cultured in 200-500 μM ALA in the absence or presence of 50 μM succinylacetone for 6-12 hours prior to visualization. Hemozoin movement in parasite digestive vacuoles were imaged by acquiring 10-20 sequential frames at 1 second intervals on the bright-field channel. Images were cropped and superimposed in Adobe Photoshop and exported as movie files with a 0.1 second frame delay. […]
The present inventors investigated whether ALA treatment could serve as a probe of heme biosynthesis activity in Plasmodium-infected erythrocytes by enabling direct visualization of PPIX production and the cellular consequences of light activation. Untreated parasites imaged on an epifluorescence microscope display only background auto-fluorescence from hemozoin crystals in the parasite digestive vacuole (FIG. 2). […]

[2] = tested on: hemozoin crystals in the parasite digestive vacuole; test: Hemozoin dynamics in the digestive vacuole after light exposure; format: cell-based, Plasmodium falciparum; conditions: 200 μM ALA-treated parasites; fluorescence image acquisition overlapping PPIX excitation
Method: as §1
The cytotoxic effects of light-activating PPIX were readily apparent by monitoring the motion of hemozoin crystals that dynamically tumble within the digestive vacuole of individual parasites. […] FIG. 3A depicts bright field and fluorescence microscopy images of untreated and 200 μM ALA-treated parasites. Fluorescence images were acquired with a Zeiss filter set 43 HE (excitation 537-562 nm, emission 570-640 nm). […]

uninfected erythrocytes = test: Fluorescence microscopy of uninfected erythrocytes incubated in ALA; format: cell-based; conditions: 500 μM ALA
Method: as §1, with “delay. Immunofluorescence images were acquired by fixing and staining parasites as previously described (Tonkin, C. J., et al., Mol. Biochem. Parasitol 137, 13-21, 2004; Ponpuak, M., et al., Mol. Microbiol. 63, 314-334, 2007). Electron microscopy images were obtained as previously described (Beck., J. R., et al., Nature 511, 592-595, 2014).” for “delay.”
FIG. 7A depicts Bright field and fluorescence (Zeiss filter set 43 HE) images of uninfected erythrocytes incubated in 500 μM ALA before or after electroporation.

[3] = tested on: asynchronous 3D7 parasites; test: Parasite growth of ALA-treated cultures with daily white-light exposure; format: cell-based, Plasmodium falciparum
Method: Parasite growth was monitored by diluting asynchronous parasites to 0.5% parasitemia and allowing culture expansion with daily or twice daily media changes. […] To assess the light sensitivity of ALA-treated parasites, asynchronous parasites were cultured in 200-500 μM ALA in the absence or presence of 50 μM succinylacetone and subjected to 2-5 minute daily exposures to broad wavelength white light on an overhead projector. Daily parasitemia measurements were plotted as a function of time and fit to an exponential growth equation using Graph Pad Prism 5.0 (Graph Pad Software, Inc., La Jolla, Calif.).
To test the effects of these changes on bulk parasite culture, the present inventors monitored the growth of untreated versus ALA-treated parasites over several days with 2-minute daily exposures to broad-wavelength white light on an overhead projector light box. FIG. 4 depicts growth of asynchronous 3D7 parasites in the presence or absence of 200 μM ALA and 50 μM succinylacetone (SA), with 2-minute exposures to white light on an overhead projector on days 0-2. Parasitemia (percentage of total erythrocytes infected with parasites) as a function of time was fit with an exponential growth equation.

[4] = tested on: 3D7 (drug sensitive) parasites; test: Chemiluminescence-based photodynamic therapy (CL-PDT) parasite growth; format: cell-based, Plasmodium falciparum; conditions: 50 μM succinylacetone
Method: Parasitemia was measured daily as indicated above.
The present inventors tested whether intraerythrocytic parasites might be uniquely susceptible to chemiluminescence-based photodynamic therapy (CL-PDT) (FIG. 9A). Artemisinin and its derivatives are current frontline drugs used for treatment of malaria, usually in combination with a partner drug. To test the efficacy of an artemisinin CL-PDT strategy for treatment of blood-stage malaria, we incubated intraerythrocytic parasites in 50-100 μM ALA with or without luminol and sub-therapeutic doses (≤10% of EC50) of dihyroartemisinin (DHA), with twice-daily media changes.

[5] = tested on: heme biosynthesis enzymes in the erythrocyte cytoplasm; test: LC-MS/MS detection of 13C-labelled PPIX and CPP from 13C-ALA in erythrocyte lysate supernatants; format: biochemical; conditions: 50 μM succinylacetone; 200 μM 5-[13C4]-ALA; saponin lysate supernatant, overnight 37° C.
Method: Parasites were cultured in 200 μM 5-[^13C4]-ALA for 12-24 hours, harvested by centrifugation, lysed in 0.05% cold saponin, washed in PBS, and extracted with DMSO. Deuteroporphyrin was added as an internal standard, and extracts were analyzed for ^13C-labeled heme, PPIX, and CPPIII using a previously published liquid chromatography-multiple reaction monitoring tandem mass spectrometry assay (Ke, H. et al., J. Biol. Chem. 289, 34827-34837, 2014).
To assess the heme biosynthesis capacity of the erythrocyte cytoplasm, 500 μl packed red blood cells (described previously; Sigala, P. A., et al., J. Biol. Chem. 287, 37793-37807, 2012) were lysed in 20 ml of 0.04% saponin/PBS (0.2 μM filtered) and centrifuged at 25,000×g for 60 minutes to pellet unlysed cells and any organelles. The superficial 15 ml of the lysate supernatant was removed and 0.2 μM filtered, supplemented with 200 μM 5-[^13C4]-ALA in the absence or presence of 50 μM succinylacetone, incubated overnight at 37° C., and analyzed by tandem mass spectrometry as described above.
In these investigations, red porphyrin fluorescence in ALA-treated intraerythrocytic parasites was not limited to the parasitophorous vacuole but was detectable throughout the erythrocyte cytoplasm (FIG. 3A), as expected for host enzyme activity in this compartment and production of PPIX. […]

Structure (SMILES)	porphyrin (PPIX) fluorescence of infected erythrocytes [1]	hemozoin dynamics after light [2]	porphyrin fluorescence of uninfected erythrocytes (uninfected erythrocytes; after electroporation)	porphyrin fluorescence of uninfected erythrocytes (uninfected erythrocytes; without electroporation)	growth of cultures in the presence of light ([3]; 200 μM ALA, 2-minute daily exposures to white light on days 0-2)	blood smear examination of light-exposed cultures ([3]; ALA-treated cultures, 2-minute daily white light)	photosensitivity of growth in ALA after apicoplast disruption ([3]; IPP/doxycycline-treated 3D7 parasites, 200 μM ALA, 2-minute light exposures)	photosensitivity of clonal growth in ALA ([3]; ΔPBGD and ΔCPO 3D7 parasite lines, 200 μM ALA, 2-minute light exposures days 0-2)	rescue of cytotoxicity of the ALA/luminol/DHA combination [4]	formation of 13C-labelled PPIX and coproporphyrin III from 13C-ALA [5]	rescue of photosensitivity of parasite growth in ALA ([3]; 50 μM succinylacetone with 200 μM ALA, 2-minute light exposures)
NCC(=O)CCC(=O)O [ALA, 5-aminolevulinic acid]	bright red fluorescence	rapidly ablated by light	robust intracellular porphyrin fluorescence	no detectable porphyrin fluorescence	strongly attenuated by light	predominantly contained pyknotic parasites	remained fully photosensitive	remained fully photosensitive	–	–	–
CC(=O)CC(=O)CCC(=O)O [succinylacetone]	–	–	–	–	–	–	–	–	could be rescued	fully blocked	fully rescued
